Test results as given in patent US11155557B2, “Pyrazolopyrimidine compounds and methods of use thereof” (Genentech, Inc., priority 2016, dated 2021).
Where two headings read alike, the source gives them in different places.

Assays:
[1] = biological target: isolated recombinant JAK1 kinase domain (Homo sapiens (Human), UniProt P23458); test: JAK1 enzyme assay (Caliper LabChip, Ki); type: biochemical
Protocol: The activity of the isolated recombinant JAK1 and JAK2 kinase domain was measured by monitoring phosphorylation of a peptide derived from JAK3 ([…] fluorescently labeled on the N-terminus with 5-carboxyfluorescein) using the Caliper LabChip R technology (Caliper Life Sciences, Hopkinton, Mass.).

[2] = biological target: isolated recombinant JAK2 kinase domain (Homo sapiens (Human), UniProt O60674); test: JAK2 enzyme assay (Caliper LabChip, Ki)
Chain of isolated recombinant JAK2 kinase domain (O60674 849-1124): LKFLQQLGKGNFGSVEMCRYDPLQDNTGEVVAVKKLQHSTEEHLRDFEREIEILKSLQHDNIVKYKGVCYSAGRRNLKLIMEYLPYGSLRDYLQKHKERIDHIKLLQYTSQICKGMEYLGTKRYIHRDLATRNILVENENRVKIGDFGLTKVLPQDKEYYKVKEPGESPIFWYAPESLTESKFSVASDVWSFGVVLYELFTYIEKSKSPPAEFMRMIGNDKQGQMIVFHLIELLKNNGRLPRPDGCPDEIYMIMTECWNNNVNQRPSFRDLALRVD

[3] = test system: JAK1-dependent STAT6 phosphorylation in BEAS-2B human bronchial epithelial cells; test: JAK1 pathway assay: IL-13 stimulated STAT6 phosphorylation in BEAS-2B cells; type: cell-based; details: Homo sapiens, BEAS-2B, BEAS-2B cells, IL-13 stimulation; read-out: IL-13 p-STAT6 BEAS-2B IC50
How it was run: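 BEAS-2B bronchial epithelial cells plated one day before, run in complete growth medium. Phospho-STAT6 in lysates measured by MesoScale Discovery; EC50 reported.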

Chain of isolated recombinant JAK1 kinase domain (P23458 875-1153): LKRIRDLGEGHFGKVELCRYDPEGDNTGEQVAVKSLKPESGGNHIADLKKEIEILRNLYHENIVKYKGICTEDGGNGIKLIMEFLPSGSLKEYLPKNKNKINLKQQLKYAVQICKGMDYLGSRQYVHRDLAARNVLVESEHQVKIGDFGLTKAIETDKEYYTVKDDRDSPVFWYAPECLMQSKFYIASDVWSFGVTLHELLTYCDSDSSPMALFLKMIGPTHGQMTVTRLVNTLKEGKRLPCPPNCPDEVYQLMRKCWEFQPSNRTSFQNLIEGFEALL

CC[C@@H](O)Cn1cc(NC(=O)c2cnn3cccnc23)c(-c2cc3c(cc2OC(F)F)NCCO3)n1 [Example 121, N-[3-[6-(difluoromethoxy)-3,4-dihydro-2H-1,4-benzoxazin-7-yl]-1-[(2R)-2-hydroxybutyl]pyrazol-4-yl]pyrazolo[1,5-a]pyrimidine-3-carboxamide]
Ki [1]: 0.41 nM
Ki [2]: 0.45 nM
IC50 [3]: 38 nM

CC[C@H](O)Cn1cc(NC(=O)c2cnn3cccnc23)c(-c2cc3c(cc2OC(F)F)NCCO3)n1 [Example 122, N-[3-[6-(difluoromethoxy)-3,4-dihydro-2H-1,4-benzoxazin-7-yl]-1-[(2S)-2-hydroxybutyl]pyrazol-4-yl]pyrazolo[1,5-a]pyrimidine-3-carboxamide]
Ki [1]: 0.28 nM
Ki [2]: 0.25 nM
IC50 [3]: 32 nM

O=C(Nc1cn(Cc2ncco2)nc1-c1cc2c(cc1OC(F)F)NCCO2)c1cnn2cccnc12 [Example 123, N-[3-[6-(difluoromethoxy)-3,4-dihydro-2H-1,4-benzoxazin-7-yl]-1-(oxazol-2-ylmethyl)pyrazol-4-yl]pyrazolo[1,5-a]pyrimidine-3-carboxamide]
Ki [1]: 0.36 nM
Ki ([2]; read-out: JAK2 Ki): 0.28 nM
IC50 [3]: 24 nM

O=C(Nc1cn(Cc2ncco2)nc1-c1cc2c(cc1OC(F)F)NCCS2)c1cnn2cccnc12 [Example 124, N-[3-[6-(difluoromethoxy)-3,4-dihydro-2H-1,4-benzothiazin-7-yl]-1-(oxazol-2-ylmethyl)pyrazol-4-yl]pyrazolo[1,5-a]pyrimidine-3-carboxamide]
Ki [1]: 0.25 nM
Ki ([2]; read-out: JAK2 Ki): 0.15 nM
IC50 [3]: 20 nM

Cn1nnnc1Cn1cc(NC(=O)c2cnn3cccnc23)c(-c2cc3c(cc2OC(F)F)NCCS3)n1 [Example 127, N-[3-[6-(difluoromethoxy)-3,4-dihydro-2H-1,4-benzothiazin-7-yl]-1-[(1-methyltetrazol-5-yl)methyl]pyrazol-4-yl]pyrazolo[1,5-a]pyrimidine-3-carboxamide]
Ki [1]: 0.12 nM
Ki ([2]; read-out: JAK2 Ki): 0.06 nM
IC50 [3]: 14 nM

Cn1nnc(Cn2cc(NC(=O)c3cnn4cccnc34)c(-c3cc4c(cc3OC(F)F)NCCS4)n2)n1 [Example 128, N-[3-[6-(difluoromethoxy)-3,4-dihydro-2H-1,4-benzothiazin-7-yl]-1-[(2-methyltetrazol-5-yl)methyl]pyrazol-4-yl]pyrazolo[1,5-a]pyrimidine-3-carboxamide]
Ki [1]: 0.14 nM
Ki ([2]; read-out: JAK2 Ki): 0.09 nM
IC50 [3]: 7 nM

CN(C)C(=O)Cn1cc(NC(=O)c2cnn3cccnc23)c(-c2cc3sncc3cc2OC(F)F)n1 [Example 129, N-[3-[5-(difluoromethoxy)-1,2-benzothiazol-6-yl]-1-[2-(dimethylamino)-2-oxo-ethyl]pyrazol-4-yl]pyrazolo[1,5-a]pyrimidine-3-carboxamide]
Ki [1]: 0.2 nM
Ki ([2]; read-out: JAK2 Ki): 0.47 nM
IC50 [3]: 11 nM

CCN(C)C(=O)Cn1cc(NC(=O)c2cnn3cccnc23)c(-c2cc3c(cc2OC(F)F)NCCO3)n1 [Example 130, N-[3-[6-(difluoromethoxy)-3,4-dihydro-2H-1,4-benzoxazin-7-yl]-1-[2-[ethyl(methyl)amino]-2-oxo-ethyl]pyrazol-4-yl]pyrazolo[1,5-a]pyrimidine-3-carboxamide]
Ki [1]: 0.31 nM
Ki ([2]; read-out: JAK2 Ki): 0.47 nM
IC50 [3]: 59 nM

Cn1cc(Cn2cc(NC(=O)c3cnn4cccnc34)c(-c3cc4c(cc3OC(F)F)NCCS4)n2)nn1 [Example 131, N-[3-[6-(difluoromethoxy)-3,4-dihydro-2H-1,4-benzothiazin-7-yl]-1-[(1-methyltriazol-4-yl)methyl]pyrazol-4-yl]pyrazolo[1,5-a]pyrimidine-3-carboxamide]
Ki [1]: 0.12 nM
Ki ([2]; read-out: JAK2 Ki): 0.08 nM
IC50 [3]: 30 nM

O=C(Nc1cn(CC(=O)N2CCC(F)(F)C2)nc1-c1cc2c(cc1OC(F)F)NCCO2)c1cnn2cccnc12 [Example 132, N-[3-[6-(difluoromethoxy)-3,4-dihydro-2H-1,4-benzoxazin-7-yl]-1-[2-(3,3-difluoropyrrolidin-1-yl)-2-oxo-ethyl]pyrazol-4-yl]pyrazolo[1,5-a]pyrimidine-3-carboxamide]
Ki [1]: 0.36 nM
Ki ([2]; read-out: JAK2 Ki): 0.4 nM
IC50 [3]: 31 nM

Cn1nncc1Cn1cc(NC(=O)c2cnn3cccnc23)c(-c2cc3c(cc2OC(F)F)NCCO3)n1 [Example 133, N-[3-[6-(difluoromethoxy)-3,4-dihydro-2H-1,4-benzoxazin-7-yl]-1-[(3-methyltriazol-4-yl)methyl]pyrazol-4-yl]pyrazolo[1,5-a]pyrimidine-3-carboxamide]
Ki [1]: 0.26 nM
Ki ([2]; read-out: JAK2 Ki): 0.21 nM
IC50 [3]: 17 nM

O=C(Nc1cn(CC2(O)CCOCC2)nc1-c1cc2c(cc1OC(F)F)NCCO2)c1cnn2cccnc12 [Example 134, N-[3-[6-(difluoromethoxy)-3,4-dihydro-2H-1,4-benzoxazin-7-yl]-1-[(4-hydroxytetrahydropyran-4-yl)methyl]pyrazol-4-yl]pyrazolo[1,5-a]pyrimidine-3-carboxamide]
Ki [1]: 0.4 nM
Ki ([2]; read-out: JAK2 Ki): 0.47 nM
IC50 [3]: 23 nM

Cn1nnnc1Cn1cc(NC(=O)c2cnn3cccnc23)c(-c2cc3c(cc2OC(F)F)NCCO3)n1 [Example 135, N-[3-[6-(difluoromethoxy)-3,4-dihydro-2H-1,4-benzoxazin-7-yl]-1-[(1-methyltetrazol-5-yl)methyl]pyrazol-4-yl]pyrazolo[1,5-a]pyrimidine-3-carboxamide]
Ki [1]: 0.19 nM
Ki ([2]; read-out: JAK2 Ki): 0.14 nM
IC50 [3]: 26 nM

Cn1nnc(Cn2cc(NC(=O)c3cnn4cccnc34)c(-c3cc4c(cc3OC(F)F)NCCO4)n2)n1 [Example 136, N-[3-[6-(difluoromethoxy)-3,4-dihydro-2H-1,4-benzoxazin-7-yl]-1-[(2-methyltetrazol-5-yl)methyl]pyrazol-4-yl]pyrazolo[1,5-a]pyrimidine-3-carboxamide]
Ki [1]: 0.23 nM
Ki ([2]; read-out: JAK2 Ki): 0.17 nM
IC50 [3]: 21 nM

Cn1cc(NC(=O)c2cnn3cccnc23)c(-c2cc3c(cc2OC(F)F)NC(=O)CO3)n1 [Example 137, N-[3-[6-(difluoromethoxy)-3-oxo-4H-1,4-benzoxazin-7-yl]-1-methyl-pyrazol-4-yl]pyrazolo[1,5-a]pyrimidine-3-carboxamide]
Ki [1]: 0.09 nM
Ki ([2]; read-out: JAK2 Ki): 0.08 nM
IC50 [3]: 8 nM

O=C(Nc1cn(CC(=O)N2CC(F)(F)C2)nc1-c1cc2c(cc1OC(F)F)NCCO2)c1cnn2cccnc12 [Example 138, N-[1-[2-(3,3-difluoroazetidin-1-yl)-2-oxo-ethyl]-3-[6-(difluoromethoxy)-3,4-dihydro-2H-1,4-benzoxazin-7-yl]pyrazol-4-yl]pyrazolo[1,5-a]pyrimidine-3-carboxamide]
Ki [1]: 0.26 nM
Ki ([2]; read-out: JAK2 Ki): 0.32 nM
IC50 [3]: 36 nM

O=C(Nc1cn(C2COC2)nc1-c1cc2sncc2cc1OC(F)F)c1cnn2cccnc12 [Example 139, N-[3-[5-(difluoromethoxy)-1,2-benzothiazol-6-yl]-1-(oxetan-3-yl)pyrazol-4-yl]pyrazolo[1,5-a]pyrimidine-3-carboxamide]
Ki [1]: 0.33 nM
Ki ([2]; read-out: JAK2 Ki): 0.21 nM
IC50 [3]: 10 nM

N#CCn1cc(NC(=O)c2cnn3cccnc23)c(-c2cc3c(cc2OC(F)F)NCCS3)n1 [Example 140, N-[1-(cyanomethyl)-3-[6-(difluoromethoxy)-3,4-dihydro-2H-1,4-benzothiazin-7-yl]pyrazol-4-yl]pyrazolo[1,5-a]pyrimidine-3-carboxamide]
Ki [1]: 0.09 nM
Ki ([2]; read-out: JAK2 Ki): 0.06 nM
IC50 [3]: 4 nM

CN(C)C(=O)Cn1cc(NC(=O)c2cnn3cccnc23)c(-c2cc3cnsc3cc2OC(F)F)n1 [Example 143, N-[3-[6-(difluoromethoxy)-1,2-benzothiazol-5-yl]-1-[2-(dimethylamino)-2-oxo-ethyl]pyrazol-4-yl]pyrazolo[1,5-a]pyrimidine-3-carboxamide]
Ki [1]: 0.22 nM
Ki ([2]; read-out: JAK2 Ki): 0.97 nM
IC50 [3]: 13 nM

N#CCn1cc(NC(=O)c2cnn3cccnc23)c(-c2cc3c(cc2OC(F)F)NCCO3)n1 [Example 144, N-[1-(cyanomethyl)-3-[6-(difluoromethoxy)-3,4-dihydro-2H-1,4-benzoxazin-7-yl]pyrazol-4-yl]pyrazolo[1,5-a]pyrimidine-3-carboxamide]
Ki [1]: 0.14 nM
Ki ([2]; read-out: JAK2 Ki): 0.11 nM
IC50 [3]: 7 nM

Cn1cc(NC(=O)c2cnn3cccnc23)c(-c2cc3c(cc2OC(F)F)NC2(COC2)CO3)n1 [Example 147, N-(3-(6-(difluoromethoxy)-2,4-dihydrospiro[benzo[b][1,4]oxazine-3,3′-oxetan]-7-yl)-1-methyl-1H-pyrazol-4-yl)pyrazolo[1,5-a]pyrimidine-3-carboxamide]
Ki [1]: 0.34 nM
Ki ([2]; read-out: JAK2 Ki): 0.32 nM
IC50 [3]: 14 nM

C[C@H]1CNc2cc(OC(F)F)c(-c3n[nH]cc3NC(=O)c3cnn4cccnc34)cc2O1 [Example 148, (S)—N-(3-(6-(difluoromethoxy)-2-methyl-3,4-dihydro-2H-benzo[b][1,4]oxazin-7-yl)-1H-pyrazol-4-yl)pyrazolo[1,5-a]pyrimidine-3-carboxamide]
Ki [1]: 0.51 nM
Ki ([2]; read-out: JAK2 Ki): 0.17 nM
IC50 [3]: 55 nM

Cn1cc(NC(=O)c2cnn3cccnc23)c(-c2cc3c(cc2OC(F)F)NCC(C)(C)O3)n1 [Example 149, N-(3-(6-(difluoromethoxy)-2,2-dimethyl-3,4-dihydro-2H-benzo[b][1,4]oxazin-7-yl)-1-methyl-1H-pyrazol-4-yl)pyrazolo[1,5-a]pyrimidine-3-carboxamide]
Ki [1]: 1.33 nM
Ki ([2]; read-out: JAK2 Ki): 0.64 nM
IC50 [3]: 43 nM

O=C(Nc1c[nH]nc1-c1cc2c(cc1OC(F)F)OCCO2)c1cnn2cccnc12 [Example 150, N-(3-(7-(difluoromethoxy)-2,3-dihydrobenzo[b][1,4]dioxin-6-yl)-1H-pyrazol-4-yl)pyrazolo[1,5-a]pyrimidine-3-carboxamide]
Ki [1]: 1.65 nM
Ki ([2]; read-out: JAK2 Ki): 0.61 nM
IC50 [3]: 61 nM
